From patent US20260262643A1, “HERBICIDAL BENZOXAZINES” (FMC CORPORATION, priority 2022, published 2026)

How the values were obtained:
ducksalad = assay: Test D flooded paddy test; format: in vivo, Heteranthera limosa; conditions: 250 g ai/ha, applied to paddy water, visual rating after 13 to 14 days, scale 0 to 100 (0 no effect, 100 complete control)
Procedure, shortened: (§1)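 Post-flood water application at the 2-leaf stage; 3 cm flood depth kept constant; visual control rating 0–100 after 13–14 days greenhouse growth.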

corn [1] = assay: Test C postemergence; format: in vivo, Zea mays; conditions: 10 days
Procedure, shortened: (§2)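 Seeds in loam–sand blend received preemergence directed soil spray of test chemicals in non-phytotoxic solvent with surfactant; postemergence treatment was applied at one- to two-leaf stage (2–10 cm). After 10 days in greenhouse, injury rated visually versus untreated controls, 0 (no effect) to 100 (complete control).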

ragweed [2] = assay: Test C preemergence; format: in vivo, Ambrosia artemisiifolia; conditions: 0 to 100 scale (0 no effect, 100 complete control); for Plant response rating, Ragweed: Preemergence, 500 g ai/ha, visual rating after 10 days; for Ragweed plant response rating: Test C, preemergence, 125 g ai/ha
Procedure, shortened: as §2

wheat [3] = assay: Test C preemergence; format: in vivo, Triticum aestivum; conditions: 0 to 100 scale (0 no effect, 100 complete control); for Plant response rating, Wheat: Preemergence, 500 g ai/ha, visual rating after 10 days; for Wheat plant response rating: Test C, preemergence, 125 g ai/ha
Procedure, shortened: as §2

green foxtail [4] = assay: Test C preemergence; format: in vivo, Setaria viridis; conditions: 0 to 100 scale (0 no effect, 100 complete control); for Plant response rating, Foxtail, Green: Preemergence, 500 g ai/ha, visual rating after 10 days; for Foxtail, Green plant response rating: Test C, preemergence, 125 g ai/ha
Procedure, shortened: as §2

sedge, umbrella = assay: Test D flooded paddy test; format: in vivo, Cyperus difformis; conditions: 250 g ai/ha, applied to paddy water, visual rating after 13 to 14 days, scale 0 to 100 (0 no effect, 100 complete control)
Procedure, shortened: as §1

barnyardgrass [5] = assay: Test C preemergence; format: in vivo, Echinochloa crusgalli; conditions: 0 to 100 scale (0 no effect, 100 complete control); for Plant response rating, Barnyardgrass: Preemergence, 500 g ai/ha, visual rating after 10 days; for Barnyardgrass plant response rating: Test C, preemergence, 125 g ai/ha
Procedure, shortened: as §2

ryegrass, Italian [6] = assay: Test C postemergence; format: in vivo, Lolium multiflorum; conditions: 10 days
Procedure, shortened: as §2

soybean [7] = assay: Test C postemergence; format: in vivo, Glycine max; conditions: 10 days
Procedure, shortened: as §2

green foxtail [8] = assay: Test C postemergence; format: in vivo, Setaria viridis; conditions: 10 days
Procedure, shortened: as §2

blackgrass [9] = assay: Test C postemergence; format: in vivo, Alopecurus myosuroides; conditions: 10 days
Procedure, shortened: as §2

pigweed, palmer [10] = assay: Test C preemergence; format: in vivo, Amaranthus palmeri; conditions: 0 to 100 scale (0 no effect, 100 complete control); for Plant response rating, Pigweed, Palmer: Preemergence, 500 g ai/ha, visual rating after 10 days; for Pigweed, Palmer plant response rating: Test C, preemergence, 125 g ai/ha
Procedure, shortened: as §2

corn [11] = assay: Test C preemergence; format: in vivo, Zea mays; conditions: 0 to 100 scale (0 no effect, 100 complete control); for Plant response rating, Corn: Preemergence, 500 g ai/ha, visual rating after 10 days; for Corn plant response rating: Test C, preemergence, 125 g ai/ha
Procedure, shortened: as §2

ragweed [12] = assay: Test C postemergence; format: in vivo, Ambrosia artemisiifolia; conditions: 10 days
Procedure, shortened: as §2

kochia [13] = assay: Test C postemergence; format: in vivo, Bassia scoparia; conditions: 10 days
Procedure, shortened: as §2

barnyardgrass [14] = assay: Test C postemergence; format: in vivo, Echinochloa crusgalli; conditions: 10 days
Procedure, shortened: as §2

oat, wild [15] = assay: Test C preemergence; format: in vivo, Avena fatua; conditions: 0 to 100 scale (0 no effect, 100 complete control); for Plant response rating, Oat, Wild: Preemergence, 500 g ai/ha, visual rating after 10 days; for Oat, Wild plant response rating: Test C, preemergence, 125 g ai/ha
Procedure, shortened: as §2

barnyardgrass [16] = assay: Test D flooded paddy test; format: in vivo, Echinochloa crus-galli; conditions: 250 g ai/ha, applied to paddy water, visual rating after 13 to 14 days, scale 0 to 100 (0 no effect, 100 complete control)
Procedure, shortened: as §1

rice = assay: Test D flooded paddy test; format: in vivo, Oryza sativa; conditions: 250 g ai/ha, applied to paddy water, visual rating after 13 to 14 days, scale 0 to 100 (0 no effect, 100 complete control)
Procedure, shortened: as §1

soybean [17] = assay: Test C preemergence; format: in vivo, Glycine max; conditions: 0 to 100 scale (0 no effect, 100 complete control); for Plant response rating, Soybean: Preemergence, 500 g ai/ha, visual rating after 10 days; for Soybean plant response rating: Test C, preemergence, 125 g ai/ha
Procedure, shortened: as §2

ryegrass, Italian [18] = assay: Test C preemergence; format: in vivo, Lolium multiflorum; conditions: 0 to 100 scale (0 no effect, 100 complete control); for Plant response rating, Ryegrass, Italian: Preemergence, 500 g ai/ha, visual rating after 10 days; for Ryegrass, Italian plant response rating: Test C, preemergence, 125 g ai/ha
Procedure, shortened: as §2

oat, wild [19] = assay: Test C postemergence; format: in vivo, Avena fatua; conditions: 10 days
Procedure, shortened: as §2

blackgrass [20] = assay: Test C preemergence; format: in vivo, Alopecurus myosuroides; conditions: 0 to 100 scale (0 no effect, 100 complete control); for Plant response rating, Blackgrass: Preemergence, 500 g ai/ha, visual rating after 10 days; for Blackgrass plant response rating: Test C, preemergence, 125 g ai/ha
Procedure, shortened: as §2

wheat [21] = assay: Test C postemergence; format: in vivo, Triticum aestivum; conditions: 10 days
Procedure, shortened: as §2

horseweed = assay: Test C postemergence; format: in vivo, Erigeron canadensis; conditions: 10 days
Procedure, shortened: as §2

pigweed, palmer [22] = assay: Test C postemergence; format: in vivo, Amaranthus palmeri; conditions: 10 days
Procedure, shortened: as §2

kochia [23] = assay: Test C preemergence; format: in vivo, Bassia scoparia; conditions: 0 to 100 scale (0 no effect, 100 complete control); for Plant response rating, Kochia: Preemergence, 500 g ai/ha, visual rating after 10 days; for Kochia plant response rating: Test C, preemergence, 125 g ai/ha
Procedure, shortened: as §2

galium = assay: Test C postemergence; format: in vivo, Galium aparine; conditions: 10 days
Procedure, shortened: as §2

[24] = 125 g ai/ha, postemergence, 0 to 100 scale, 0 no effect, 100 complete control
[25] = Postemergence, 500 g ai/ha, visual 0 to 100 scale (0 no effect, 100 complete control)

Cc1cccc2c1O[C@@H](C)CN2C(=O)c1cc(-n2cnc(C(C)C)n2)cc2ccoc12 [Compound 227]
50: Plant response rating, Ragweed (ragweed [2]) | Plant response rating, Blackgrass (blackgrass [9]; [24]) | Corn plant response rating (corn [11]) | Plant response rating, Ragweed (ragweed [12]; [25]) | Plant response rating, Barnyardgrass (Flood) (barnyardgrass [16])
40: Plant response rating, Barnyardgrass (barnyardgrass [14]; [24]) | Plant response rating, Horseweed (horseweed; [25])
0: Ragweed plant response rating (ragweed [2]) | Wheat plant response rating (wheat [3])
70: Plant response rating, Barnyardgrass (barnyardgrass [14]; [25]) | Soybean plant response rating (soybean [17])
90: Plant response rating, Barnyardgrass (barnyardgrass [5]) | Plant response rating, Ryegrass, Italian (ryegrass, Italian [6]; [24]) | Plant response rating, Foxtail, Green (green foxtail [8]; [25]) | Pigweed, Palmer plant response rating (pigweed, palmer [10]) | Plant response rating, Kochia (kochia [13]; [24]) | Plant response rating, Oat, Wild (oat, wild [15]) | Oat, Wild plant response rating (oat, wild [15]) | Plant response rating, Soybean (soybean [17]) | Plant response rating, Ryegrass, Italian (ryegrass, Italian [18]) | Ryegrass, Italian plant response rating (ryegrass, Italian [18]) | Plant response rating, Blackgrass (blackgrass [20]) | Kochia plant response rating (kochia [23])
30: Plant response rating, Wheat (wheat [3]) | Plant response rating, Oat, Wild (oat, wild [19]; [24])
60: Plant response rating, Corn (corn [11]) | Plant response rating, Oat, Wild (oat, wild [19]; [25]) | Plant response rating, Wheat (wheat [21]; [25])
98: Plant response rating, Sedge, Umbrella (Flood) (sedge, umbrella)
10: Plant response rating, Ragweed (ragweed [12]; [24]) | Plant response rating, Rice (Flood) (rice)
20: Plant response rating, Corn (corn [1]; [24]) | Plant response rating, Wheat (wheat [21]; [24]) | Plant response rating, Horseweed (horseweed; [24])
80: Plant response rating, Ducksalad (Flood) (ducksalad) | Plant response rating, Corn (corn [1]; [25]) | Barnyardgrass plant response rating (barnyardgrass [5]) | Plant response rating, Foxtail, Green (green foxtail [8]; [24]) | Plant response rating, Blackgrass (blackgrass [9]; [25]) | Blackgrass plant response rating (blackgrass [20])
100: Plant response rating, Foxtail, Green (green foxtail [4]) | Foxtail, Green plant response rating (green foxtail [4]) | Plant response rating, Ryegrass, Italian (ryegrass, Italian [6]; [25]) | Plant response rating, Soybean (soybean [7]; [24]) | Plant response rating, Soybean (soybean [7]; [25]) | Plant response rating, Pigweed, Palmer (pigweed, palmer [10]) | Plant response rating, Kochia (kochia [13]; [25]) | Plant response rating, Pigweed, Palmer (pigweed, palmer [22]; [24]) | Plant response rating, Pigweed, Palmer (pigweed, palmer [22]; [25]) | Plant response rating, Kochia (kochia [23]) | Plant response rating, Galium (galium; [24]) | Plant response rating, Galium (galium; [25])

Cc1ccc(-n2cnc(C3(C(F)(F)F)CC3)n2)cc1C(=O)N1C[C@H](C)Oc2c(Cl)cccc21 [Compound 175]
80: Ryegrass, Italian plant response rating (ryegrass, Italian [18]) | Plant response rating, Horseweed (horseweed; [24])
90: Foxtail, Green plant response rating (green foxtail [4]) | Plant response rating, Kochia (kochia [13]; [24]) | Plant response rating, Soybean (soybean [17]) | Plant response rating, Ryegrass, Italian (ryegrass, Italian [18]) | Plant response rating, Pigweed, Palmer (pigweed, palmer [22]; [24]) | Plant response rating, Pigweed, Palmer (pigweed, palmer [22]; [25]) | Plant response rating, Galium (galium; [24]) | Plant response rating, Galium (galium; [25])
60: Plant response rating, Ryegrass, Italian (ryegrass, Italian [6]; [25]) | Soybean plant response rating (soybean [17]) | Plant response rating, Horseweed (horseweed; [25])
40: Kochia plant response rating (kochia [23])
20: Plant response rating, Corn (corn [1]; [25]) | Ragweed plant response rating (ragweed [2]) | Plant response rating, Wheat (wheat [3]) | Wheat plant response rating (wheat [3]) | Plant response rating, Corn (corn [11]) | Plant response rating, Ragweed (ragweed [12]; [24]) | Plant response rating, Barnyardgrass (barnyardgrass [14]; [24]) | Oat, Wild plant response rating (oat, wild [15]) | Plant response rating, Oat, Wild (oat, wild [19]; [25])
0: Plant response rating, Ducksalad (Flood) (ducksalad) | Plant response rating, Corn (corn [1]; [24]) | Plant response rating, Sedge, Umbrella (Flood) (sedge, umbrella) | Corn plant response rating (corn [11]) | Plant response rating, Barnyardgrass (Flood) (barnyardgrass [16]) | Plant response rating, Rice (Flood) (rice) | Blackgrass plant response rating (blackgrass [20])
70: Plant response rating, Ragweed (ragweed [2]) | Barnyardgrass plant response rating (barnyardgrass [5]) | Plant response rating, Foxtail, Green (green foxtail [8]; [25]) | Plant response rating, Ragweed (ragweed [12]; [25])
50: Plant response rating, Ryegrass, Italian (ryegrass, Italian [6]; [24]) | Plant response rating, Blackgrass (blackgrass [9]; [25]) | Plant response rating, Barnyardgrass (barnyardgrass [14]; [25]) | Plant response rating, Oat, Wild (oat, wild [15])
100: Plant response rating, Foxtail, Green (green foxtail [4]) | Plant response rating, Barnyardgrass (barnyardgrass [5]) | Plant response rating, Soybean (soybean [7]; [24]) | Plant response rating, Soybean (soybean [7]; [25]) | Plant response rating, Pigweed, Palmer (pigweed, palmer [10]) | Pigweed, Palmer plant response rating (pigweed, palmer [10]) | Plant response rating, Kochia (kochia [13]; [25]) | Plant response rating, Kochia (kochia [23])
10: Plant response rating, Blackgrass (blackgrass [9]; [24]) | Plant response rating, Oat, Wild (oat, wild [19]; [24]) | Plant response rating, Blackgrass (blackgrass [20]) | Plant response rating, Wheat (wheat [21]; [24]) | Plant response rating, Wheat (wheat [21]; [25])
30: Plant response rating, Foxtail, Green (green foxtail [8]; [24])
